What all share (format): cell-based
For test [1], the system named is NFAT-Luc reporter gene, HEK 293 cells. Description: NFAT transcriptional activity (NFAT-Luc reporter). As to conditions: Homo sapiens, HEK293, thapsigargin. Here is the method:
NFAT Transcriptional Activity: HEK 293 cells were stably transfected with a NFAT-Luc reporter gene. 30,000-80,000 cells were seeded per well. Test compounds from this invention were added to the cells at different concentrations. Thapsigargin (TG) was added after 10 mins and the cells were incubated for 4-8 h. NFAT transcriptional activity was measured using BrightGlo reagent (Promega USA). Luminescence observed in cells treated with thapsigargin was considered 100% maximal signal and the reduced fluorescent signal observed in the presence of test compounds was expressed as percent inhibition of the maximal signal. The data was analyzed using 4-parametric sigmoidal dose response (variable slope) curve-fit.

Another test has as its system SOCE, Jurkat E6.1 cells. Description: SOCE inhibition (thapsigargin/calcium influx, FLIPR). The note with it: Homo sapiens, thapsigargin, calcium chloride. The method, then:
SOCE inhibition: Jurkat E6.1 cells were seeded at a density of 1-2×10^5 cells per well in calcium-4 dye prepared in calcium free HBSS (Sigma, USA). Test compounds from this invention were added to the cells at different concentrations. This was followed by the addition of thapsigargin (TG), a SERCA inhibitor, to empty the stores of calcium. Calcium chloride was added to the cells after 10-30 min to induce calcium influx and the fluorescence was measured for 10 min using the FLIPR-Tetra detection system. Fluorescence was also measured using a plate reader at 485 nm excitation and 520 nm emission (Synergy2, Biotek, USA) after 30-90 minutes of calcium addition. Fluorescence observed in cells treated with Thapsigargin and calcium chloride solution was considered 100% maximal signal and the reduced fluorescent signal observed in the presence of test compounds was expressed as percent inhibition of the maximal signal. The dose response data was analyzed using 4-parametric sigmoidal dose response (variable slope) curve-fit.

Test [2] has as its system IL-2 secretion, Jurkat T cells. The test can be described thus: Inhibition of IL-2 secretion (PHA-stimulated Jurkat T cells, ELISA). The note with it: Homo sapiens; Jurkat T cells stimulated with PHA, 20 to 24 hours. The method, then: The CRAC channel modulatory activity of the compounds were thus evaluated by measuring the secretion of IL-2 by antigen stimulated T-cells in vitro. Alternatively, such activity can also be evaluated by assay methods known to one skilled in the art.
Inhibition of IL-2 secretion: Jurkat T cells were seeded at a density of 0.5 to 1 million cells per well in RPMI medium. Test compounds from this invention were added to the cells at different concentrations. This was followed by the addition of PHA, a T cell mitogen after 10 minutes.
The cells were then incubated for 20 to 24 hours in a CO2 incubator at 37° C. After incubation with the compounds, cells were centrifuged, collected the supernatant and processed for ELISA to quantitate the amount of IL-2 secreted. A commercial ELISA kit (R&D Systems, Inc. Minneapolis, Minn., USA) was used to estimate the IL-2 concentrations. Amount of IL-2 secreted by cells stimulated with PHA was considered as a 100% maximal signal and the decrease in amount of IL-2 secreted by cells treated with the test compounds was expressed as percent inhibition of the maximal signal. The dose response data was analyzed using 4-parametric sigmoidal dose response (variable slope) curve-fit.
In general terms: An ELISA detects its analyte on a solid surface through an enzyme-linked reagent.

Some results are limits rather than exact numbers.

The IC50 is the concentration that inhibits the measured activity by half. The molecule `Cc1nnsc1C(=O)Nc1ccc(-c2cccc(-c3nn(C)c(=O)o3)c2C)cc1` [Example 50, 4-Methyl-N-(2′-methyl-3′-(4-methyl-5-oxo-4,5-dihydro-1,3,4-oxadiazol-2-yl)-[1,1′-biphenyl]-4-yl)-1,2,3-thiadiazole-5-carboxamide] yielded an IC50 in test [1] of less than 500 nM. Turning to `CNc1ccc(C2=NOC(C)(C)C2=O)cc1-c1ccc(NC(=O)c2c(F)cccc2F)cc1` [Example 135, N-(5′-(5,5-Dimethyl-4-oxo-4,5-dihydroisoxazol-3-yl)-2′-(methylamino)-[1,1′-biphenyl]-4-yl)-2,6-difluorobenzamide], the IC50 is less than 500 nM in test [1]; less than 1000 nM with SOCE, Jurkat E6.1 cells; less than 100 nM in test [2]. On to `COc1ccc(C2=NOC(C)(C)C2=O)cc1-c1ccc(NC(=O)c2c(F)cccc2F)cc1` [Example 15, N-(5′-(5,5-dimethyl-4-oxo-4,5-dihydroisoxazol-3-yl)-2′-methoxy-[1,1′-biphenyl]-4-yl)-2,6-difluorobenzamide], for which the IC50 in the test with SOCE, Jurkat E6.1 cells is less than 1000 nM. Same read-out and setting: the same measure for `COc1ccc(-c2nn(C)c(=O)o2)cc1-c1ccc(NC(=O)c2c(F)cccc2Cl)cc1` [Example 41, 2-Chloro-6-fluoro-N-(2′-methoxy-5′-(4-methyl-5-oxo-4,5-dihydro-1,3,4-oxadiazol-2-yl)[1,1′-biphenyl]-4-yl)benzamide]: less than 1000 nM. Turning to `Cc1c(C2=NOC(C)(C)C2=O)cccc1-c1ccc(NC(=O)c2c(F)cccc2F)cc1` [Example 29, N-(3′-(5,5-Dimethyl-4-oxo-4,5-dihydroisoxazol-3-yl)-2′-methyl-[1,1′-biphenyl]-4-yl)-2,6-difluorobenzamide], the IC50 in test [1] is less than 500 nM; in test [2], less than 100 nM.

For the molecule `Cc1ccc(C2=NOC(C)(C)C2=O)cc1-c1cnc(NC(=O)c2cc(F)ccc2F)cn1` [Example 67, N-(5-(5-(5,5-Dimethyl-4-oxo-4,5-dihydroisoxazol-3-yl)-2-methylphenyl)pyrazine-2-yl)-2,5-difluorobenzamide], the IC50 in test [2] is 100 to 1000 nM. For the molecule `Cc1ccc(C2=NOC(CO)(CCO)C2)cc1-c1ccc(NC(=O)c2c(F)cccc2F)cc1` (stereo not shown) [Example 145, 2,6-Difluoro-N-(5′-(5-(2-hydroxyethyl)-5-(hydroxymethyl)-4,5-dihydroisoxazol-3-yl)-2′-methyl-[1,1′-biphenyl]-4-yl)benzamide], in test [2], the IC50 was greater than 1000 nM. Turning to `Cc1c(-c2nn(C)c(=O)o2)cccc1-c1ccc(C(=O)Nc2c(F)cccc2F)s1` [Example 176, N-(2,6-Difluorophenyl)-5-(2-methyl-3-(4-methyl-5-oxo-4,5-dihydro-1,3,4-oxadiazol-2-yl)phenyl)thiophene-2-carboxamide], the IC50 in test [1] was less than 500 nM; in the test on SOCE, Jurkat E6.1 cells it was less than 1000 nM; in test [2], less than 100 nM.

Consider `COc1ccc(C2=NOC(C)(C)C2=O)cc1-c1ccc(C(=O)Nc2c(F)cccc2F)s1` [Example 160, N-(2,6-Difluorophenyl)-5-(5-(5,5-dimethyl-4-oxo-4,5-dihydroisoxazol-3-yl)-2-methoxy-phenyl)thiophene-2-carboxamide], for which the half-maximal inhibitory concentration (IC50) was less than 1000 nM in the test on SOCE, Jurkat E6.1 cells and less than 100 nM in test [2]. Take `Cc1ccc(C2=NOC3(CCCCC3)C2=O)cc1-c1ccc(NC(=O)c2c(F)cccc2F)cc1` [Example 58, 2,6-Difluoro-N-(2′-methyl-5′-(4-oxo-1-oxa-2-azaspiro[4.5]dec-2-en-3-yl)-[1,1′-biphenyl]-4-yl)benzamide]: the IC50 in test [2] lay within 100 to 1000 nM. The molecule `CN(C)c1ccc(C2=NOC(C)(C)C2=O)cc1-c1ccc(NC(=O)c2c(F)cccc2F)cc1` [Example 136, N-(5′-(5,5-Dimethyl-4-oxo-4,5-dihydroisoxazol-3-yl)-2′-(dimethylamino)-[1,1′-biphenyl]-4-yl)-2,6-difluorobenzamide] had a half-inhibitory concentration (IC50) in test [2] of 100 to 1000 nM. Still for that read-out and setting: the value for `Cc1ccc(C2=NOC(C)(C)C2=O)cc1-c1cnc(NC(=O)c2ccccc2Cl)cn1` [Example 78, 2-Chloro-N-(5-(5-(5,5-dimethyl-4-oxo-4,5-dihydroisoxazol-3-yl)-2-methylphenyl)pyrazin-2-yl)benzamide] was 100 to 1000 nM; that for `Cc1ccc(-c2nn(C)c(=O)o2)cc1-c1ccc(NC(=O)c2c(F)cccc2F)cc1` [Example 33, 2,6-Difluoro-N-(2′-methyl-5′-(4-methyl-5-oxo-4,5-dihydro-1,3,4-oxadiazol-2-yl)-[1,1′-biphenyl]-4-yl)benzamide] was less than 100 nM.

Take `COc1ccc(-c2nn(C)c(=O)o2)cc1-c1ccc(NC(=O)c2c(F)cccc2F)cc1` [Example 40, 2,6-Difluoro-N-(2′-methoxy-5′-(4-methyl-5-oxo-4,5-dihydro-1,3,4-oxadiazol-2-yl)[1,1′-biphenyl]-4-yl)benzamide]: in test [2], the half-maximal inhibitory concentration (IC50) was less than 100 nM. With `CC1(C)ON=C(c2ccc(Cl)c(-c3ccc(NC(=O)c4c(F)cccc4F)cc3)c2)C1=O` [Example 11, N-(2′-chloro-5′-(5,5-dimethyl-4-oxo-4,5-dihydroisoxazol-3-yl)-[1,1′-biphenyl]-4-yl)-2,6-difluorobenzamide], the IC50 in test [2] lay in the range of 100 to 1000 nM. `Cc1ccc(C2=NOC(C)(C)C2=O)cc1-c1cnc(C(=O)Nc2c(F)cccc2F)cn1` [Example 121, N-(2,6-Difluorophenyl)-5-(5-(5,5-dimethyl-4-oxo-4,5-dihydroisoxazol-3-yl)-2-methylphenyl)pyrazine-2-carboxamide] displayed a half-inhibitory concentration (IC50) in test [2] of 100 to 1000 nM.

These data come from patent US10292981B2, “Oxazoline and isoxazoline derivatives as CRAC modulators” (LUPIN LIMITED, priority 2010, dated 2019).
